In PubChem BioAssay (NCI):
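How tested: cells in 96-well plates exposed to compound for 48 hours at five concentrations. Abbreviation: GI50, concentration required for 50% inhibition of growth. TGI: total growth inhibition.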

Legend:
Assay in all cases: growth of human tumour cells (NCI), 48 h
[1] = test system: MOLT-4 leukemia
[2] = test system: HOP-18 NSCLC
[3] = test system: SNB-75 CNS
[4] = test system: OVCAR-3 ovarian
[5] = test system: K-562 leukemia
[6] = test system: HCT-15 colon
[7] = test system: M14 melanoma
[8] = test system: DLD-1 colon
[9] = test system: UO-31 renal
[10] = test system: SF-539 CNS
[11] = test system: RPMI-8226 leukemia
[12] = test system: LOX IMVI melanoma
[13] = test system: EKVX NSCLC
[14] = test system: SF-268 CNS
[15] = test system: KM20L2 colon
[16] = test system: SK-MEL-5 melanoma
[17] = test system: A498 renal
[18] = test system: LXFL 529 NSCLC
[19] = test system: UACC-257 melanoma
[20] = test system: CCRF-CEM leukemia
[21] = test system: KM12 colon
[22] = test system: COLO 205 colon
[23] = test system: IGROV1 ovarian
[24] = test system: SN12C renal
[25] = test system: ACHN renal
[26] = test system: SK-MEL-28 melanoma
[27] = test system: OVCAR-8 ovarian
[28] = test system: U251 CNS
[29] = test system: UACC-62 melanoma
[30] = test system: HCC-2998 colon
[31] = test system: DMS 114 small cell lung
[32] = test system: OVCAR-4 ovarian
[33] = test system: HOP-92 NSCLC
[34] = test system: OVCAR-5 ovarian
[35] = test system: HL-60(TB) leukemia
[36] = test system: NCI-H522 lung
[37] = test system: 786-0 renal
[38] = test system: HOP-62 NSCLC
[39] = test system: NCI-H23 lung
[40] = test system: SW-620 colon
[41] = test system: SR leukemia
[42] = test system: TK-10 renal
[43] = test system: NCI-H460 lung
[44] = test system: SK-OV-3 ovarian
[45] = test system: SNB-19 CNS
[46] = test system: SF-295 CNS
[47] = test system: NCI-H226 lung
[48] = test system: MALME-3M melanoma
[49] = test system: HCT-116 colon
[50] = test system: DMS 273 small cell lung
[51] = test system: HT29 colon
[52] = test system: CAKI-1 renal
[53] = test system: M19-MEL melanoma
[54] = test system: A549 NSCLC
[55] = test system: SK-MEL-2 melanoma
[56] = test system: RXF 393 renal
[57] = test system: SNB-78 CNS
[58] = test system: XF 498 CNS

O=C1C=CC(=O)C2C1Cc1ccccc1C2c1ccccc1 (centres undefined) was tested, and the TGI [1] was 93.2 µM, the TGI [2] was over 100 µM and the TGI [3] was over 100 µM. For the same compound, the TGI [4] was 88.3 µM, the TGI [5] was over 100 µM and the TGI [6] was over 100 µM. For the same compound, the TGI [7] was over 100 µM, the TGI [8] was over 100 µM and the TGI [9] was over 100 µM. For the same compound, the TGI [10] was over 100 µM, the TGI [11] was 67.6 µM and the TGI [12] was over 100 µM. It also gave a TGI [13] of 72.9 µM, a TGI [14] of over 100 µM and a TGI [15] of over 100 µM. It also gave a TGI [16] of over 100 µM, a TGI [17] of 73.1 µM and a TGI [18] of 31.1 µM. It also gave a TGI [19] of 70.2 µM, a TGI [20] of 68.7 µM and a TGI [21] of over 100 µM. It also gave a TGI [22] of 35.5 µM, a TGI [23] of over 100 µM and a TGI [24] of over 100 µM. It also gave a TGI [25] of over 100 µM, a TGI [26] of over 100 µM and a TGI [27] of 78 µM. The TGI [28] was 33 µM, the TGI [29] was over 100 µM and the TGI [30] was 60 µM. The TGI [31] was 42.3 µM, the TGI [32] was 46 µM and the TGI [33] was 85 µM. For the same compound, the TGI [34] was over 100 µM, the TGI [35] was 53.1 µM and the TGI [36] was 35.2 µM. For the same compound, the TGI [37] was over 100 µM, the TGI [38] was over 100 µM and the TGI [39] was over 100 µM. It also gave a TGI [40] of 71 µM, a TGI [41] of 59.1 µM and a TGI [42] of over 100 µM. For the same compound, the TGI [43] was 81.4 µM, the TGI [44] was over 100 µM and the TGI [45] was over 100 µM. The TGI [46] was over 100 µM, the TGI [47] was over 100 µM and the TGI [48] was over 100 µM. It also gave a TGI [49] of over 100 µM, a TGI [50] of over 100 µM and a TGI [51] of over 100 µM. The TGI [52] was over 100 µM, the TGI [53] was over 100 µM and the TGI [54] was over 100 µM. It also gave a TGI [55] of 90.1 µM.
CC(C)=O.O=C([O-])C(F)(F)F.O=C([O-])C(F)(F)F.O=C([O-])C(F)(F)F.O=C([O-])C(F)(F)F.[Rh+2].[Rh+2] showed a GI50 [1] of 15.4 µM, a TGI [1] of over 100 µM and a GI50 [3] of 58.6 µM. It also gave a TGI [3] of over 100 µM, a GI50 [4] of over 100 µM and a TGI [4] of over 100 µM. For the same compound, the GI50 [5] was 31.8 µM, the TGI [5] was over 100 µM and the GI50 [6] was over 100 µM. It also gave a TGI [6] of over 100 µM, a GI50 [7] of over 100 µM and a TGI [7] of over 100 µM. It also gave a GI50 [8] of over 100 µM, a TGI [8] of over 100 µM and a GI50 [9] of over 100 µM. The TGI [9] was over 100 µM, the GI50 [10] was over 100 µM and the TGI [10] was over 100 µM. It also gave a GI50 [11] of 33.2 µM, a TGI [11] of over 100 µM and a GI50 [12] of 53.3 µM. The TGI [12] was over 100 µM, the GI50 [13] was 47.2 µM and the TGI [13] was over 100 µM. It also gave a GI50 [14] of over 100 µM, a TGI [14] of over 100 µM and a GI50 [56] of over 100 µM. The TGI [56] was over 100 µM, the GI50 [15] was over 100 µM and the TGI [15] was over 100 µM. The GI50 [16] was over 100 µM, the TGI [16] was over 100 µM and the GI50 [18] was 31 µM. The TGI [18] was over 100 µM, the GI50 [19] was over 100 µM and the TGI [19] was over 100 µM. For the same compound, the GI50 [20] was 35.5 µM, the TGI [20] was over 100 µM and the GI50 [21] was over 100 µM. The TGI [21] was over 100 µM, the GI50 [22] was 96.1 µM and the TGI [22] was over 100 µM. For the same compound, the GI50 [23] was over 100 µM, the TGI [23] was over 100 µM and the GI50 [24] was over 100 µM. The TGI [24] was over 100 µM, the GI50 [25] was 50.5 µM and the TGI [25] was over 100 µM. For the same compound, the GI50 [57] was 49.4 µM, the TGI [57] was over 100 µM and the GI50 [26] was 94.3 µM. The TGI [26] was over 100 µM, the GI50 [27] was 56.1 µM and the TGI [27] was over 100 µM. It also gave a GI50 [28] of 47.5 µM, a TGI [28] of over 100 µM and a GI50 [29] of over 100 µM. The TGI [29] was over 100 µM, the GI50 [30] was over 100 µM and the TGI [30] was over 100 µM. The GI50 [31] was 26.8 µM, the TGI [31] was 90.3 µM and the GI50 [32] was 69.7 µM. The TGI [32] was over 100 µM, the GI50 [34] was over 100 µM and the TGI [34] was over 100 µM. It also gave a GI50 [37] of 71.5 µM, a TGI [37] of over 100 µM and a GI50 [38] of over 100 µM. For the same compound, the TGI [38] was over 100 µM, the GI50 [39] was 46.7 µM and the TGI [39] was over 100 µM. It also gave a GI50 [40] of 65.2 µM, a TGI [40] of over 100 µM and a GI50 [41] of 22.2 µM. It also gave a TGI [41] of over 100 µM, a GI50 [42] of 81.4 µM and a TGI [42] of over 100 µM. It also gave a GI50 [58] of 58 µM, a TGI [58] of over 100 µM and a GI50 [44] of over 100 µM. For the same compound, the TGI [44] was over 100 µM, the GI50 [45] was 60.4 µM and the TGI [45] was over 100 µM. It also gave a GI50 [46] of over 100 µM, a TGI [46] of over 100 µM and a GI50 [47] of over 100 µM. It also gave a TGI [47] of over 100 µM, a GI50 [49] of 54 µM and a TGI [49] of over 100 µM. The GI50 [50] was 94.1 µM, the TGI [50] was over 100 µM and the GI50 [51] was over 100 µM. The TGI [51] was over 100 µM, the GI50 [53] was 47.4 µM and the TGI [53] was over 100 µM. It also gave a GI50 [54] of over 100 µM and a TGI [54] of over 100 µM.
N#CNC(=NCc1ccccc1)NCCc1c[nH]c2ccccc12 was tested, and the TGI [1] was over 100 µM, the TGI [3] was over 100 µM and the TGI [4] was over 100 µM. The TGI [5] was over 100 µM, the TGI [6] was over 100 µM and the TGI [7] was over 100 µM. The TGI [8] was over 100 µM, the TGI [9] was 86.2 µM and the TGI [10] was over 100 µM. For the same compound, the TGI [11] was over 100 µM, the TGI [12] was over 100 µM and the TGI [13] was over 100 µM. For the same compound, the TGI [14] was over 100 µM, the TGI [56] was over 100 µM and the TGI [15] was over 100 µM. It also gave a TGI [16] of 83.3 µM, a TGI [18] of over 100 µM and a TGI [19] of over 100 µM. It also gave a TGI [20] of over 100 µM, a TGI [21] of over 100 µM and a TGI [22] of over 100 µM. It also gave a TGI [23] of over 100 µM, a TGI [24] of over 100 µM and a TGI [25] of over 100 µM. For the same compound, the TGI [57] was over 100 µM, the TGI [26] was over 100 µM and the TGI [27] was over 100 µM. For the same compound, the TGI [28] was over 100 µM, the TGI [29] was over 100 µM and the TGI [30] was over 100 µM. It also gave a TGI [31] of over 100 µM, a TGI [32] of over 100 µM and a TGI [34] of over 100 µM. The TGI [35] was over 100 µM, the TGI [37] was 83.5 µM and the TGI [38] was over 100 µM. The TGI [39] was over 100 µM, the TGI [40] was over 100 µM and the TGI [41] was over 100 µM. It also gave a TGI [42] of over 100 µM, a TGI [43] of over 100 µM and a TGI [58] of over 100 µM. It also gave a TGI [44] of over 100 µM, a TGI [45] of over 100 µM and a TGI [46] of over 100 µM. The TGI [47] was over 100 µM, the TGI [49] was over 100 µM and the TGI [50] was over 100 µM. The TGI [51] was over 100 µM, the TGI [53] was over 100 µM and the TGI [54] was over 100 µM.
